From PMC7347559, “Inhibition of the ATP synthase sensitizes Staphylococcus aureus towards human antimicrobial peptides” (Scientific Reports, 2020)
Converted amounts (≈) assume the structure as drawn. Where a SMILES comes first, the peptide text is derived from it. Bridges are numbered along the chain shown (N, C = ends). Where no end group is shown, it is not given here. [ ]: non-standard residue; d: D form. The star is where a group is joined. X1 = CC[C@H](C)CCCCC(=O)*; Dab = NCC[C@H](N)C(=O)O

How the values were obtained:
S. aureus JE2 (WT) = test: Bacterial cell survival assay (CFU after 2 h exposure in NaPi); type: cell-based, Staphylococcus aureus
Description: (§1) From overnight cultures of S. aureus JE2 and mutants, 10 μl was diluted into 990 μl fresh TSB medium in a falcon tube and grown for 2 h for the cells to reach early exponential phase. After 2 h the cultures were re-suspended in 10 mM sodium phosphate buffer (pH 7.4), termed NaPi (Medicago, Sweden). Cells were subsequently diluted in NaPi to approximately 5 × 10^5 CFU/ml, and combined with antimicrobial peptides and resveratrol when indicated, to a final volume of 100 µl and incubated in 96-well plates with shaking for 2 h at 37 °C. Bacteria were plated for CFU on TSA plates. Following overnight incubation at 37 °C for 24 h, viable cells were enumerated and relative cell survival was calculated as CFUwith peptide/CFUwithout peptide at 2 h post-exposure.

S. aureus JE2 [1] = test: Two-fold broth microdilution MIC in TSB; type: cell-based; settings: Staphylococcus aureus, JE2, 24 h
Description: The minimum inhibitory concentration for resveratrol was determined using a two-fold broth microdilution assay in TSB (100 µl) with an initial inoculum of approximately 5 × 10^5 cells/ml.

[2] = test system: S. aureus JE2 atpA mutant (atpA::ΦNΣ); test: Bacterial cell survival assay (CFU after 2 h exposure in NaPi); type: cell-based, Staphylococcus aureus; settings: for difference in susceptibility / survival between atpA mutant and WT (in words): 2 h exposure at the concentrations highlighted in Fig. 1a
Description: as §1

[3] = test system: S. aureus JE2 atpB mutant (atpB::ΦNΣ); test: as above; type: cell-based, Staphylococcus aureus; settings: hBD4 5 µM
Description: as §1

[4] = test system: S. aureus JE2 atpG mutant (atpG::ΦNΣ); test: as above; type: cell-based, Staphylococcus aureus; settings: hBD4 5 µM
Description: as §1

[5] = test system: S. aureus JE2 menD mutant (menD::ΦNΣ); test: as above; type: cell-based, Staphylococcus aureus; settings: hBD4 5 µM
Description: as §1

[6] = test system: opsonized S. aureus JE2 WT in human neutrophils; settings: 1 h incubation, MOI 1, opsonized with 10% normal human serum; mean of at least seven replicates; without DPI 49.9%
Description: (§2) Blood was collected from healthy adult volunteers and written informed consent was given. Isolation of neutrophils was performed following the procedure described in[36]. All methods were carried out in accordance with relevant guidelines and regulations. The institutional review board (IRB) of the University of Tübingen approved the study and all adult subjects provided informed consent. This study was done in accordance with the ethics committee of the medical faculty of the University of Tübingen that approved the study, Approval number 015/2014 BO2. Briefly, heparinized blood was diluted 1:1 (v/v) with PBS containing 0.5% BSA and 2 mM EDTA and layered onto a gradient of Biocoll (density, 1.077 g/ml; Biochrom) and Histopaque (density, 1.119 g/ml; Sigma). After centrifugation for 20 min at 380×g, neutrophils were collected from the Histopaque phase. Cells were subjected to a brief hypotonic shock with ultrapure-water containing 155 mM ammonium chloride, 1 mM potassium hydrogen carbonate and 0.1 mM EDTA at pH 7.4, washed, and suspended at 2.5 × 10^6 cells/ml in RPMI containing […] HSA, 2 mM glutamine, 2 mM sodium pyruvate and 10 mM HEPES.
(§3) Starter cultures of S. aureus JE2 and its respective atpA mutant were grown in TSB medium overnight.

[7] = test system: opsonized S. aureus JE2 atpA mutant in human neutrophils; settings: 1 h incubation, MOI 1, opsonized with 10% normal human serum; mean of at least seven replicates; without DPI 39.2%
Description: as §2, §3

S. aureus JE2 [8] = test: Etest MIC on TSA; type: cell-based, Staphylococcus aureus; settings: 37 °C, 24 h
Description: (§4) The MIC for polymyxin B was determined using Etest (bioMérieux, France) in the absence and in the presence of sub-inhibitory concentrations (0.0625x–0.25 × MIC) of resveratrol or menadione (1 µg/ml, Sigma). From overnight cultures, strains were diluted to approximately 10^8 CFU/ml and then distributed on TSA plates using a sterile cotton swab.

atpA::ΦNΣ = test: Etest MIC on TSA; type: cell-based, Staphylococcus aureus; settings: 37 °C, 24 h
Description: as §4

[9] = test system: atpA^+ (allelic exchange of transposon insertion with intact atpA gene); test: Etest MIC on TSA; type: cell-based, Staphylococcus aureus; settings: 37 °C, 24 h
Description: as §4

menD::ΦNΣ = test: Etest MIC on TSA; type: cell-based, Staphylococcus aureus; settings: 37 °C, 24 h
Description: as §4

## Oc1ccc(/C=C/c2cc(O)cc(O)c2)cc1 [resveratrol]
S. aureus JE2 (WT); resveratrol 32 µg/ml in combination with hBD4 5 µM
  increase in killing of WT S. aureus compared with hBD4 alone: 20 fold
S. aureus JE2 (WT); resveratrol alone at sub-inhibitory concentration 0.125 × MIC (32 µg/ml)
  impact on S. aureus viability: no impact
S. aureus JE2 [1]
  MIC: 256 µg/mL (≈ 1120 µM)

## hBD4: human β-defensin 4 (Innovagen) (EFELDRICGYGTARCRKKCRSQEYRIGRCPNTYACCLRKWDESLLNRTKP; ends and bridges not checked; cysteine pairing not given here; UniProt Q8WTQ1 23-72, looked up)
[2]
  difference in susceptibility / survival between atpA mutant and WT (in words): more susceptible
[2]; 2 h exposure, concentrations of Fig. 1a (5 µM)
  greater reduction in viable cells of atpA mutant compared with WT: 63 fold
[3]
  susceptibility of atpB mutant compared with WT: increased susceptibility
[4]
  susceptibility of atpG mutant compared with WT: increased susceptibility
[5]
  reduction in viable cell count of menD mutant: no reduction in viable cell count

## LL-37 (LLGDFFRKSKEKIGKEFKRIVQRIKDFLRNLVPRTES; Antibacterial peptide LL-37; UniProt P49913 134-170, looked up) [human antimicrobial peptide of the cathelicidin family (Isca Biochemicals)]
[2]
  difference in susceptibility / survival between atpA mutant and WT (in words): minor increase in bactericidal activity

## c1ccc2c(c1)[I+]c1ccccc1-2 [DPI, diphenyleneiodonium]
[6]
  surviving WT cells in DPI-treated neutrophils, percentage of initial counts: 91.4%
[7]
  surviving atpA cells in DPI-treated neutrophils, percentage of initial counts: 74.3%

## CC[C@H](C)CCCCC(=O)N[C@@H](CCN)C(=O)N[C@H](C(=O)N[C@@H](CCN)C(=O)N[C@H]1CCNC(=O)[C@H]([C@@H](C)O)NC(=O)[C@H](CCN)NC(=O)[C@H](CCN)NC(=O)[C@H](CC(C)C)NC(=O)[C@@H](Cc2ccccc2)NC(=O)[C@H](CCN)NC1=O)[C@@H](C)O [polymyxin B] (X1-[Dab]T[Dab][Dab][Dab][dF]L[Dab][Dab]T; lactam 4-C (inferred); N-terminus assumed)
S. aureus JE2 [8]; TSA + 0 µg/ml resveratrol
  Polymyxin B MIC: 128 µg/mL
S. aureus JE2 [8]; TSA + 16 µg/ml resveratrol
  Polymyxin B MIC: 64 to 96 µg/mL
S. aureus JE2 [8]; TSA + 32 µg/ml resveratrol
  Polymyxin B MIC: 48 µg/mL
S. aureus JE2 [8]; TSA + 64 µg/ml resveratrol
  Polymyxin B MIC: 24 µg/mL
S. aureus JE2 [8]; TSA
  MIC: 128 µg/mL (≈ 106 µM)
atpA::ΦNΣ
  MIC: 16 µg/mL (≈ 13.3 µM)
[9]
  MIC: 96 µg/mL (≈ 79.8 µM)
menD::ΦNΣ; TSA + menadione (1 µg/ml)
  MIC: 192 µg/mL
menD::ΦNΣ; TSA
  MIC: > 1024 µg/mL

## hBD3: human β-defensin 3 (Innovagen) (GIINTLQKYYCRVRGGRCAVLSCLPKEEQIGKCSTRGRKCCRRKK; ends and bridges not checked; cysteine pairing not given here; UniProt P81534 23-67, looked up)
[2]
  difference in susceptibility / survival between atpA mutant and WT (in words): no differences

## histatin-5
[2]
  difference in susceptibility / survival between atpA mutant and WT (in words): minor increase in bactericidal activity

## hBD1: human β-defensin 1 (Innovagen) (DHYNCVSSGGQCLYSACPIFTKIQGTCYRGKAKCCK; ends and bridges not checked; cysteine pairing not given here; UniProt P60022 33-68, looked up)
[2]
  difference in susceptibility / survival between atpA mutant and WT (in words): no differences
